{"source": "patent US20100056513A1", "about": "“STEREOSPECIFICALLY SUBSTITUTED BENZO[1,3]DIOXOLYL DERIVATIVES” (priority 2005, published 2010)", "key": {"[1]": {"molecular_target": "T1, human cannabis CB1 receptor (Homo sapiens, UniProt P21554)", "T1 construct": "expressed in transfected cells; host or cells: human embryonic kidney (HEK) cells, Semliki Forest Virus system, membrane preparation", "T1 sequence (P21554 whole entry)": "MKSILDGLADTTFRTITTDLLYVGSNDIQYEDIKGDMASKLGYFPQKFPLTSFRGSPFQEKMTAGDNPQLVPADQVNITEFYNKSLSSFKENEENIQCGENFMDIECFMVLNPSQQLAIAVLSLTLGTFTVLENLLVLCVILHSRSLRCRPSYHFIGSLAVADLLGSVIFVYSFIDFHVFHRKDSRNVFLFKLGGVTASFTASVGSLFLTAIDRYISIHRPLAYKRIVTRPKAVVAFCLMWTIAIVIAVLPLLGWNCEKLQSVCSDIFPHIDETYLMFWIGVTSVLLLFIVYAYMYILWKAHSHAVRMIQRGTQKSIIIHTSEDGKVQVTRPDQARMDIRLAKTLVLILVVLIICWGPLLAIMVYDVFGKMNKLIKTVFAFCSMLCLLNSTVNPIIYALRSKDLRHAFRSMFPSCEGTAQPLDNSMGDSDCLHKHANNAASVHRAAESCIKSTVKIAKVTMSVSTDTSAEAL", "test": "CB1 receptor affinity, [3H]-CP-55,940 radioligand binding on HEK cell membranes", "protocol": "The affinity of the compounds of the invention for cannabinoid CB1 receptors was determined using membrane preparations of human embryonic kidney (HEK) cells in which the human cannabis CB1 receptor is transiently transfected using the Semliki Forest Virus system in conjunction with [3H]-CP-55,940 as radioligand. After incubation of a freshly prepared cell membrane preparation with the [3H]-ligand, with or without addition of compounds of the invention, separation of bound and free ligand was performed by filtration over glassfiber filters. Radioactivity on the filter was measured by liquid scintillation counting.\nThe data is determined with the experimental conditions described in Devane et. al. Mol. Pharmacol. 34 (1988) 605-613."}, "NMRI mice": {"tested_on": "NMRI mice", "test": "CP 55,940-induced hypothermia in NMRI mice", "assay_type": "in vivo", "settings": "po, CP 55,940 0.3 mg/kg i.v.; for Hypothermia in NMRI mice ID50 or minimum effective dose (MED), result in words: highest dose 30 mg/kg", "protocol": "Effect of CB1 Receptor Antagonist/Inverse Agonist on CP 55,940-Induced Hypothermia in NMRI Mice\nMale NMRI mice were used in this study and were obtained from Research Consulting Company Ltd (RCC) of Füllinsdorf (Switzerland). Mice, weighing 30-31 g were used in this study. Ambient temperature is approximately 20-21° C. and relative humidity 55-65%. A 12 hours light-dark cycle is maintained in the rooms with all tests being performed during the light phase. Access to tap water and food are ad libitum.\nAll measurements were made between 12:00 am and 5:00 pm. Mice were brought in this environment and habituated for at least two hours before the start of the experiment. They had always free access to food and water. For each dose, 8 mice were used. Rectal body temperature measurements were recorded by mean of a rectal probe (RET2 of Physitemp) and digital thermometer (Digi-sense n°8528-20 of Cole Parmer, Chicago USA). The probe was inserted about 3.5 cm in each mouse.\nThe body temperature was taken 15 min before administration of either Vehicle or CB1 receptor antagonist/inverse agonist. 30 or 90 min after i.p. or p.o. administration of this compound, respectively, rectal body temperature was recorded in order to evaluate any influence of the compound itself. The CB receptor agonist CP 55,940 (0.3 mg/kg) was immediately administered intravenously, then 20 min after i.v. administration of CP 55940, body temperature was again measured."}, "[2]": {"settings": "doses of 10 and 20 mg daily; cited from earlier work"}, "[3]": {"tested_on": "obese Spague-Dawley rats fed a high fat diet", "test": "Body weight reduction in obese rats fed a high fat diet", "assay_type": "in vivo", "settings": "over 17 days", "description": "In vivo efficacy in the hypothermia model translated into efficacy in a disease related model, namely body weight reduction in obese Spague-Dawley rats fed a high fat diet (in analogy to Vickers et al. Psychopharmacology 2003, 167, 103-11 for obese fa/fa rats)."}, "[4]": {"settings": "Table 1, read-out: IC50 (affinity for the CB1 receptor)"}, "[5]": {"settings": "Table 2, read-out: CB1 receptor affinity IC50"}}, "note": "Read-outs that look alike come from different tables or passages of the source."}
{"smiles": "O=C(c1cc2c(cc1F)O[C@](c1ccc(F)cc1)(c1ccc(Cl)cc1Cl)O2)N1CCOCC1", "note": "[R-(+)-[2-(2,4-Dichloro-phenyl)-2-(4-fluoro-phenyl)-6-fluoro-benzo[1,3]dioxol-5-yl]-morpholin-4-yl-methanone]", "values": [{"measurement": "IC50", "setting": "[1]; [4]", "value": 7, "unit": "nM"}]}
{"smiles": "O=C(c1cc2c(cc1F)O[C@@](c1ccccc1F)(c1ccc(Cl)cc1Cl)O2)N1CCOCC1", "note": "[S-(−)-[2-(2,4-dichloro-phenyl)-6-fluoro-2-(2-fluoro-phenyl)-benzo[1,3]dioxol-5-yl]-morpholin-4-yl-methanone]", "values": [{"measurement": "Hypothermia in NMRI mice ID50 or minimum effective dose (MED), result in words", "setting": "NMRI mice", "value": "inactive at 30"}, {"measurement": "IC50", "setting": "[1]; [4]", "value": 33, "unit": "nM"}]}
{"smiles": "O=C(c1cc2c(cc1F)OC(c1ccc(Cl)cc1)(c1ccc(Cl)cc1)O2)N1CCOCC1", "note": "[Meso-[2,2-Bis-(4-chloro-phenyl)-6-fluoro-benzo[1,3]dioxol-5-yl]-morpholin-4-yl-methanone, reference compound]", "values": [{"measurement": "Hypothermia in NMRI mice ID50 or minimum effective dose (MED), result in words", "setting": "NMRI mice", "value": "inactive at 30"}, {"measurement": "IC50", "setting": "[1]; [5]", "value": 26, "unit": "nM"}]}
{"smiles": "Cc1c(C(=O)NN2CCCCC2)nn(-c2ccc(Cl)cc2Cl)c1-c1ccc(Cl)cc1", "note": "[rimonabant, reference compound]", "values": [{"measurement": "body weight compared to placebo", "setting": "[2]", "value": "significantly reduced body weight"}, {"measurement": "BW reduction", "setting": "[3]; once daily 10 mg/kg po", "value": 6.6, "unit": "%"}]}
{"smiles": "O=C(c1cc2c(cc1F)O[C@](c1ccccc1F)(c1ccc(Cl)cc1Cl)O2)N1CCOCC1", "note": "[R-(+)[2-(2,4-Dichloro-phenyl)-6-fluoro-2-(2-fluoro-phenyl)-benzo[1,3]dioxol-5-yl]-morpholin-4-yl-methanone]", "values": [{"measurement": "Hypothermia in NMRI mice ID50", "setting": "NMRI mice", "value": "ID50: 4.0 mg/kg po"}, {"measurement": "IC50", "setting": "[1]; [4]", "value": 5, "unit": "nM"}]}
{"smiles": "O=C(c1cc2c(cc1F)O[C@](c1ccc(Cl)cc1)(c1ccc(Cl)cc1Cl)O2)N1CCOCC1", "note": "[R-(−)-[2-(4-Chloro-phenyl)-2-(2,4-dichloro-phenyl)-6-fluoro-benzo[1,3]dioxol-5-yl]-morpholin-4-yl-methanone]", "values": [{"measurement": "Hypothermia in NMRI mice ID50", "setting": "NMRI mice", "value": "ID50: 1.6 mg/kg po"}, {"measurement": "IC50", "setting": "[1]; [4]", "value": 2.5, "unit": "nM"}, {"measurement": "BW reduction", "setting": "[3]; once daily 3 mg/kg po", "value": 9.7, "unit": "%"}]}
{"smiles": "O=C(c1cc2c(cc1F)O[C@@](c1ccc(Cl)cc1)(c1ccc(Cl)cc1Cl)O2)N1CCOCC1", "note": "[S-(+)[2-(4-Chloro-phenyl)-2-(2,4-dichloro-phenyl)-6-fluoro-benzo[1,3]dioxol-5-yl]-morpholin-4-yl-methanone]", "values": [{"measurement": "Hypothermia in NMRI mice minimum effective dose (MED)", "setting": "NMRI mice", "value": "MED: 10 mg/kg po"}, {"measurement": "IC50", "setting": "[1]; [4]", "value": 17, "unit": "nM"}, {"measurement": "IC50", "setting": "[1]; [5]", "value": 17, "unit": "nM"}]}
{"smiles": "O=C(c1cc2c(cc1F)O[C@@](c1ccc(F)cc1)(c1ccc(Cl)cc1Cl)O2)N1CCOCC1", "note": "[S-(−)[2-(2,4-Dichloro-phenyl)-2-(4-fluoro-phenyl)-6-fluoro-benzo[1,3]dioxol-5-yl]-morpholin-4-yl-methanone]", "values": [{"measurement": "IC50", "setting": "[1]; [4]", "value": 75, "unit": "nM"}]}
